Like-named read-outs stand apart in the source and are kept apart here.
How the values were obtained:
[1] = tested on: AGS cells (KRAS G12D), phospho-ERK; assay: pERK In Cell Western (ICW) assay (Method B), AGS cells; format: cell-based; conditions: Homo sapiens
Experimental: pERK ICW is a high throughput screening assay to evaluate the cellular potency of mutant KRAS small molecule inhibitors. KRAS mutant cell lines AGS and GP2D (KRAS^G12D) were purchased from ATCC and maintained respectively in RPMI and DMEM medium supplemented with 10% fetal bovine serum and Penicillin/Streptomycin.
Cells grown in exponential phase were trypsinized, resuspended in fresh media, and viable cells were counted using a cell counter with Trypan Blue (BioRad TC20). Cells were seeded into 384-well plate (Greiner 781091) at density of 5,000 cells/well for AGS and 10,000 cells/well for GP2D and allowed to grow overnight in a 37° C. CO2 incubator. The next day, compounds were dispensed into wells with a ½ log, 10-point serial dilution and top concentration of […] using Tecan D300e dispenser and incubated for 3 hours in a 37° C. CO2 incubator. Cells were then fixed with paraformaldehyde (Electron Microscopy Sciences, 15710, 4% final concentration) for 30 min, permeabilized with wash buffer (1×PBS+0.1% Triton X-100) for 30 min and blocked with Odyssey blocking buffer (Li—COR 927-70001) for 1 hour, all at room temperature (RT). Phospho-ERK antibody (CST 4370L) was diluted 1:500 in Odyssey blocking+0.2% Tween 20 and incubated with cells overnight at 4° C. The next day, plates were washed 5× with wash buffer, incubated with IRDye 800 CW, Goat anti-Rabbit secondary antibody (Li—COR 926-32211, 1:500) and DRAQ5 (CST 4084L, 1:5,000) diluted in Odyssey blocking+0.2% Tween 20 for 1 hour, washed 5×, and imaged on an Odyssey CLx imaging system.
For data analysis, signal intensities from 800 (phosphor-ERK) and 700 (DRAQ5) channels were extracted, and phospho-ERK signals were normalized to DRAQ5 signals for each well and percent of DMSO control values were computed. Data were then imported into Graphpad Prism to compute half-maximal inhibitory concentrations (IC50) using a 4-parameter variable slope model. Z-factor for each plate was computed from signals derived from wells treated with either DMSO or […] of Trametinib. AGS pERK ICW (Method B) IC50 (uM) values of selected compounds are depicted in Table 2 with compounds having a value 0.001 uM to 0.01 uM as ++++; >0.01 uM to 0.1 uM as +++; >0.1 uM to 1 uM as ++; 1 uM to 10 uM as + and >10 uM as NA.

[2] = target: T1, GST-tagged KRAS-G12D (2-169) (Homo sapiens, UniProt P01116, G12D); assay: Nucleotide exchange assay (NEA), SOS-mediated, HTRF, KRAS G12D; format: biochemical; conditions: IC50 extracted at 30 min
T1 construct: GST-tagged KRAS-G12D (2-169, Reaction Biology, MSC-11-539); purchased Reaction Biology MSC-11-539 (KRAS G12D); MSC-11-502 (SOS1cat)
T1 sequence (P01116 2-169 isoform P01116-2 G12D): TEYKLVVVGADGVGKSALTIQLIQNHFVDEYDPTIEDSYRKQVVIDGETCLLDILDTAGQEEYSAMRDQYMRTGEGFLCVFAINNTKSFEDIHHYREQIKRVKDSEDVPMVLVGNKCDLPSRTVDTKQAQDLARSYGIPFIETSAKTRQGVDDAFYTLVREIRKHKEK
Method in brief: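 IC50 values come from 4-parameter fits at the 30 min time point of an SOS-driven exchange read by HTRF, normalised to DMSO (0%) and SOS-free blank (100%). Final reaction: 5 nM GST-KRAS-G12D (2-169), 20 nM SOScat, 150 nM fluorescent GTP-DY-647P1, after 1 h RT compound preincubation with KRAS and Tb-cryptate anti-GST.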

[3] = Table 4, pERK, 3 hours, read-out: ICW-AGS

SMILES	IC50 ([1]; Table 2, 3 hours, ICW, read-out: pERK-AGS (uM) Method B) [µM]	IC50 [1, 3] [µM]	IC50 ([2]; Table 2) [nM]	IC50 ([2]; Table 4) [nM]
CN(C)C(=O)c1nn2c(c1Cl)CN(c1nc(OC[C@@]34CCCN3C[C@H](F)C4)nc(N3CC4(CCc5sc(N)c(C#N)c54)C3)c1C#N)CCC2 [Compound 2, 5-[6-(2-amino-3-cyano-spiro[5,6-dihydrocyclopenta[b]thiophene-4,3′-azetidine]-1′-yl)-5-cyano-2-[[(2R,8S)-2-fluoro-1,2,3,5,6,7-hexahydropyrrolizin-8-yl]methoxy]pyrimidin-4-yl]-3-chloro-N,N-dimethyl-4,6,7,8-tetrahydropyrazolo[1,5-a][1,4]diazepine-2-carboxamide]	0.01 to 0.1	0.01 to 0.1	< 10	< 10
CN(C)C(=O)c1nn2c(c1Cl)CN(c1nc(OC[C@@]34CCCN3C[C@H](F)C4)nc(N3CC4(CCCc5sc(N)c(C#N)c54)C3)c1C#N)CCC2 [Compound 3, 5-[6-(2-amino-3-cyano-spiro[6,7-dihydro-5H-benzothiophene-4,3′-azetidine]-1′-yl)-5-cyano-2-[[(2R,8S)-2-fluoro-1,2,3,5,6,7-hexahydropyrrolizin-8-yl]methoxy]pyrimidin-4-yl]-3-chloro-N,N-dimethyl-4,6,7,8-tetrahydropyrazolo[1,5-a][1,4]diazepine-2-carboxamide]		0.01 to 0.1	< 10	< 10
N#Cc1c(N2C[C@H]3CC[C@@H](C2)N3)nc(OCC2(CN3CCOCC3)CC2)nc1N1CC2(CCc3sc(N)c(C#N)c32)C1 [Compound 4, 2-amino-1′-[5-cyano-2-[[1-(morpholinomethyl)cyclopropyl]methoxy]-6-[(1R,5S)-3,8-diazabicyclo[3.2.1]octan-3-yl]pyrimidin-4-yl]spiro[5,6-dihydrocyclopenta[b]thiophene-4,3′-azetidine]-3-carbonitrile]		0.001 to 0.01		< 10
CN(C)C(=O)c1nn2c(c1Cl)CN(c1nc(OCC3(CN4CCOCC4)CC3)nc(N3CC4(CCc5sc(N)c(C#N)c54)C3)c1C#N)CCC2 [Compound 5, 5-[6-(2-amino-3-cyano-spiro[5,6-dihydrocyclopenta[b]thiophene-4,3′-azetidine]-1′-yl)-5-cyano-2-[[1-(morpholinomethyl)cyclopropyl]methoxy]pyrimidin-4-yl]-3-chloro-N,N-dimethyl-4,6,7,8-tetrahydropyrazolo[1,5-a][1,4]diazepine-2-carboxamide]		0.01 to 0.1		< 10
N#Cc1c(N)sc2c1C1(CC2)CN(c2nc(OC[C@@]34CCCN3C[C@H](F)C4)nc(N3CCC[C@]4(C3)NC(=O)NC4=O)c2F)C1 [Compound 7, 2-amino-1′-[6-[(5R)-2,4-dioxo-1,3,9-triazaspiro[4.5]decan-9-yl]-5-fluoro-2-[[(2R,8S)-2-fluoro-1,2,3,5,6,7-hexahydropyrrolizin-8-yl]methoxy]pyrimidin-4-yl]spiro[5,6-dihydrocyclopenta[b]thiophene-4,3′-azetidine]-3-carbonitrile]		1 to 10		< 10
CN(C)C(=O)c1cc2n(n1)CCCN(c1nc(OC[C@@]34CCCN3C[C@H](F)C4)nc(N3CC4(CCc5sc(N)c(C#N)c54)C3)c1C#N)C2 [Compound 8, 5-[6-(2-amino-3-cyano-spiro[5,6-dihydrocyclopenta[b]thiophene-4,3′-azetidine]-1′-yl)-5-cyano-2-[[(2R,8S)-2-fluoro-1,2,3,5,6,7-hexahydropyrrolizin-8-yl]methoxy]pyrimidin-4-yl]-N,N-dimethyl-4,6,7,8-tetrahydropyrazolo[1,5-a][1,4]diazepine-2-carboxamide]		0.01 to 0.1		< 10
CN(C)C(=O)c1nn2c(c1Cl)CN(c1nc(OC[C@@]34CCCN3C[C@H](F)C4)nc(N3CC4(CCc5sc(N)c(C#N)c54)C3)c1F)CCC2 [Compound 9, 5-[6-(2-amino-3-cyano-spiro[5,6-dihydrocyclopenta[b]thiophene-4,3′-azetidine]-1′-yl)-5-fluoro-2-[[(2R,8S)-2-fluoro-1,2,3,5,6,7-hexahydropyrrolizin-8-yl]methoxy]pyrimidin-4-yl]-3-chloro-N,N-dimethyl-4,6,7,8-tetrahydropyrazolo[1,5-a][1,4]diazepine-2-carboxamide]		0.1 to 1		< 10
CN(C)C(=O)c1nn2c(c1Cl)CN(c1nc(OC[C@@]34CCCN3C[C@H](F)C4)nc(N3CC4(CCCCc5sc(N)c(C#N)c54)C3)c1C#N)CCC2 [Compound 10, 5-[6-(2-amino-3-cyano-spiro[5,6,7,8-tetrahydrocyclohepta[b]thiophene-4,3′-azetidine]-1′-yl)-5-cyano-2-[[(2R,8S)-2-fluoro-1,2,3,5,6,7-hexahydropyrrolizin-8-yl]methoxy]pyrimidin-4-yl]-3-chloro-N,N-dimethyl-4,6,7,8-tetrahydropyrazolo[1,5-a][1,4]diazepine-2-carboxamide]		0.01 to 0.1		< 10
N#Cc1c(N2CC3(CCc4sc(N)c(C#N)c43)C2)nc(OC[C@@]23CCCN2C[C@H](F)C3)nc1N1CCC[C@]2(C1)NC(=O)NC2=O [Compound 11, 2-amino-1′-[5-cyano-6-[(5R)-2,4-dioxo-1,3,9-triazaspiro[4.5]decan-9-yl]-2-[[(2R,8S)-2-fluoro-1,2,3,5,6,7-hexahydropyrrolizin-8-yl]methoxy]pyrimidin-4-yl]spiro[5,6-dihydrocyclopenta[b]thiophene-4,3′-azetidine]-3-carbonitrile]		1 to 10		< 10
N#Cc1c(N2CCCC3(C2)NC(=O)NC3=O)nc(OC[C@@]23CCCN2C[C@H](F)C3)nc1N1CC2(CCc3sc(N)c(C#N)c32)C1 (stereo partly drawn) [Compound 12, 2-amino-1′-[5-cyano-6-(2,4-dioxo-1,3,9-triazaspiro[4.5]decan-9-yl)-2-[[(2R,8S)-2-fluoro-1,2,3,5,6,7-hexahydropyrrolizin-8-yl]methoxy]pyrimidin-4-yl]spiro[5,6-dihydrocyclopenta[b]thiophene-4,3′-azetidine]-3-carbonitrile]		1 to 10		< 10
CC(=O)c1nn2c(c1Cl)CN(c1nc(OC[C@@]34CCCN3C[C@H](F)C4)nc(N3CC4(CCc5sc(N)c(C#N)c54)C3)c1C#N)CCC2 [Compound 13, 1′-[6-(2-acetyl-3-chloro-4,6,7,8-tetrahydropyrazolo[1,5-a][1,4]diazepin-5-yl)-5-cyano-2-[[(2R,8S)-2-fluoro-1,2,3,5,6,7-hexahydropyrrolizin-8-yl]methoxy]pyrimidin-4-yl]-2-amino-spiro[5,6-dihydrocyclopenta[b]thiophene-4,3′-azetidine]-3-carbonitrile]		0.01 to 0.1		< 10
CC1CC2(CN(c3nc(OC[C@@]45CCCN4C[C@H](F)C5)nc(N4CCCn5nc(C(=O)N(C)C)c(Cl)c5C4)c3C#N)C2)c2c1sc(N)c2C#N (stereo partly drawn) [Compound 14, 5-[6-(2-amino-3-cyano-6-methyl-spiro[5,6-dihydrocyclopenta[b]thiophene-4,3′-azetidine]-1′-yl)-5-cyano-2-[[(2R,8S)-2-fluoro-1,2,3,5,6,7-hexahydropyrrolizin-8-yl]methoxy]pyrimidin-4-yl]-3-chloro-N,N-dimethyl-4,6,7,8-tetrahydropyrazolo[1,5-a][1,4]diazepine-2-carboxamide]		0.01 to 0.1		< 10
N#Cc1c(N)sc2c1C1(CC2)CN(c2nc(OC[C@@]34CCCN3C[C@H](F)C4)nc(N3C[C@H]4CC[C@@H](C3)N4)c2F)C1 [Compound 15, 2-amino-1′-[6-(3,8-diazabicyclo[3.2.1]octan-3-yl)-5-fluoro-2-[[(2R,8S)-2-fluoro-1,2,3,5,6,7-hexahydropyrrolizin-8-yl]methoxy]pyrimidin-4-yl]spiro[5,6-dihydrocyclopenta[b]thiophene-4,3′-azetidine]-3-carbonitrile]		0.01 to 0.1		< 10

— patent US12145947B2, “Pyrimidine based modulators and uses thereof” (Quanta Therapeutics, Inc., priority 2022, dated 2024)
